Assay results published in ChEMBL document CHEMBL1201862, “PubChem BioAssay data set” (2004).
Active and inactive are the calls of the source.

What was measured:
[1] = Luminescence Cell-Based Dose Response HTS to Identify Activators of Luciferase Translation or Activity in H4 […] Cells. [Related pubchem assays: 1829 (Project Summary), 1814 (Primary HTS)]; type: functional
H4 = assay: Luminescence Cell-Based Dose Response HTS to Identify Activators of 5'UTR Stem-Loop Driven Prion Protein mRNA Translation in H4 Neuroglioblastoma Cells. [Related pubchem assays: 1829 (Project Summary), 1814 (Primary HTS)]; type: functional; details: Homo sapiens
[2] = molecular target: T1, Replicative DNA helicase DnaB (Mycobacterium tuberculosis, UniProt P9WMR3); assay: DnaB intein splicing inhibitors, dose response, biochemical, cell-free fluorescence (AID 449749); type: functional
T1 sequence (P9WMR3 whole entry): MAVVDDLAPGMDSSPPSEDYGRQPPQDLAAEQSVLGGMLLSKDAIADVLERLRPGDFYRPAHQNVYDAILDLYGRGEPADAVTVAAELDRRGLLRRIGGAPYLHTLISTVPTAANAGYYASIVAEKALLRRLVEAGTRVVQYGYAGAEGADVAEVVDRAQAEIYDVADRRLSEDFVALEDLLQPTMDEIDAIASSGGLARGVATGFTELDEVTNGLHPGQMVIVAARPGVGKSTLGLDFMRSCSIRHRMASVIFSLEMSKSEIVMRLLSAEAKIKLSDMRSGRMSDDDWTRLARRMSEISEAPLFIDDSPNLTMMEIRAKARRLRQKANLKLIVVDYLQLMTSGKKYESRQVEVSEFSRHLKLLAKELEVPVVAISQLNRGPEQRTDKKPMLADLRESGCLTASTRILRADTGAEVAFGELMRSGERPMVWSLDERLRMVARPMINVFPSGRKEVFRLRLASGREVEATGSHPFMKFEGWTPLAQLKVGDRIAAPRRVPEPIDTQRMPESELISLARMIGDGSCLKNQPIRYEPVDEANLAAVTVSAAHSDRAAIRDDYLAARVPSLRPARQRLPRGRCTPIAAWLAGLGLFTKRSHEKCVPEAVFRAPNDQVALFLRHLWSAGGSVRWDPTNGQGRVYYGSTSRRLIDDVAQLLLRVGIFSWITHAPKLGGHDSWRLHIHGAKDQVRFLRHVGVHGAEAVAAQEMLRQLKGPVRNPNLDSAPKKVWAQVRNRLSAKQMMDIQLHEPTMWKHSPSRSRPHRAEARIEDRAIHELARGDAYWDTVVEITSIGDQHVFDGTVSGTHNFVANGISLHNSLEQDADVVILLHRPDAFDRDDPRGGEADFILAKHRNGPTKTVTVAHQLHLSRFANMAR

[3] = Luminescence Cell-Based Dose Confirmation HTS to Identify Activators of 5'UTR Stem-Loop Driven Alpha-Synuclein mRNA Translation in H4 Neuroglioblastoma Cells. [Related pubchem assays: 1829 (Project Summary), 1814 (Primary HTS)]; type: functional
Protein RecA = molecular target: T2, Protein RecA (Mycobacterium tuberculosis, UniProt P9WHJ3); assay: Fluorescence Cell-Free Homogeneous Dose Retest to Identify Inhibitors of RecA-Intein Splicing Activity. [Related pubchem assays (depositor defined):AID2097, AID2223, AID489010, AID492950]; type: functional
T2 sequence (P9WHJ3 whole entry): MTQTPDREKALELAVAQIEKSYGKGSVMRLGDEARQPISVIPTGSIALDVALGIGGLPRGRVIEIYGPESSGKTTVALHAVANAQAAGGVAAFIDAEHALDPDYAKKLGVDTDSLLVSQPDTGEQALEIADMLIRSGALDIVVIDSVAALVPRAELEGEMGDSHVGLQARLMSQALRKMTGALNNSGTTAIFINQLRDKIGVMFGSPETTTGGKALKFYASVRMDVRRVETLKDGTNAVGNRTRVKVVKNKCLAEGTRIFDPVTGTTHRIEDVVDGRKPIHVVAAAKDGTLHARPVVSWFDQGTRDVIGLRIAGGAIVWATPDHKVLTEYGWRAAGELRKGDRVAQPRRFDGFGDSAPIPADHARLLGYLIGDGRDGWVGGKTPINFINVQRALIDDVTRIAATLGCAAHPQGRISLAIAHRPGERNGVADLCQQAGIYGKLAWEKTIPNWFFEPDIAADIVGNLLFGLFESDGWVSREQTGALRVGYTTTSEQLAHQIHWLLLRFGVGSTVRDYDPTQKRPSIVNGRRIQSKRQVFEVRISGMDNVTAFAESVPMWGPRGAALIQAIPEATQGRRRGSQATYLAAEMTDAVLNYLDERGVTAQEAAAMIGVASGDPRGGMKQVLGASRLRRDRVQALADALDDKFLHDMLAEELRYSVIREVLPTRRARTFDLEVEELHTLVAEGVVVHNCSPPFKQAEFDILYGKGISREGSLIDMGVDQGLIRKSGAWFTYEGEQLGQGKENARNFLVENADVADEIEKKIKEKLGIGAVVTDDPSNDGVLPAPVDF

[4] = Trypanosoma cruzi growth suppression in host cells – NIH3T3 host cells, beta-gal luminescence, confirmation (AID 2044); type: functional, cell-based;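 further: intracellular parasites grown in NIH/3T3 mouse fibroblasts as host cells; luminescent beta-galactosidase reporter signal from transgenic T. cruzi replicating inside host cells; inhibitors lower the luminescence signal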
[5] = NIH3T3 cell viability loss – ATP luminescence, mouse fibroblasts, counter-screen, dose response (AID 2010); type: functional, cell-based;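 further: cells exposed to compound for about 90 hours before reading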
[6] = molecular target: T3, Carboxy-terminal domain RNA polymerase II polypeptide A small phosphatase 1 (Homo sapiens, UniProt Q9GZU7); assay: CTDSP1 inhibitors, concentration-response, biochemical, absorbance readout, ultra-high-throughput screen actives (AID 540297); type: functional
T3 sequence (Q9GZU7 whole entry): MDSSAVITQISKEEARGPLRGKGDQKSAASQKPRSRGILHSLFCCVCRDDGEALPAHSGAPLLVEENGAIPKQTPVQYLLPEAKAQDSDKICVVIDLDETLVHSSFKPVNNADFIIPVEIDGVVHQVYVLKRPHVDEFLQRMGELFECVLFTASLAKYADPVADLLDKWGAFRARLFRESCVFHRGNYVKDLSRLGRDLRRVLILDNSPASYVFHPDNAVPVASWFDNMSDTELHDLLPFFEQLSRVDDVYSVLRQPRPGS

[7] = non-specific 3'UTR reporter inhibition in Clone20-Shn3RL – cell-based, Renilla luciferase, cherry-picked, counter-screen for Shn3 inhibitor project, dose response (AID 624133); type: functional
[8] = reduction of Shn3 3'UTR-driven luciferase in osteoblasts – cell-based, Clone20 osteoblasts, firefly luciferase, cherry-picked, dose response (AID 624132); type: functional;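 further: firefly luciferase luminescence from reporter carrying the Shn3 3'UTR in osteoblasts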
[9] = loss of viability in HepG2 cells – cell-based, CellTiter-Glo, cherry-picked, cytotoxicity control for Shn3 inhibitor project, dose response (AID 624134); type: functional
[10] = Luminescence Cell-Based Dose Retest to Confirm Inhibitors of Cancer Stem Cells. [Related pubchem assays (depositor defined):AID2717, AID2721]; type: functional; details: Homo sapiens
[11] = molecular target: Luciferin 4-monooxygenase (Photinus pyralis, UniProt P08659); assay: inhibition of purified Photinus pyralis luciferase – biochemical, luminescence, dose response (AID 1891)
Chain of Luciferin 4-monooxygenase (P08659 whole entry): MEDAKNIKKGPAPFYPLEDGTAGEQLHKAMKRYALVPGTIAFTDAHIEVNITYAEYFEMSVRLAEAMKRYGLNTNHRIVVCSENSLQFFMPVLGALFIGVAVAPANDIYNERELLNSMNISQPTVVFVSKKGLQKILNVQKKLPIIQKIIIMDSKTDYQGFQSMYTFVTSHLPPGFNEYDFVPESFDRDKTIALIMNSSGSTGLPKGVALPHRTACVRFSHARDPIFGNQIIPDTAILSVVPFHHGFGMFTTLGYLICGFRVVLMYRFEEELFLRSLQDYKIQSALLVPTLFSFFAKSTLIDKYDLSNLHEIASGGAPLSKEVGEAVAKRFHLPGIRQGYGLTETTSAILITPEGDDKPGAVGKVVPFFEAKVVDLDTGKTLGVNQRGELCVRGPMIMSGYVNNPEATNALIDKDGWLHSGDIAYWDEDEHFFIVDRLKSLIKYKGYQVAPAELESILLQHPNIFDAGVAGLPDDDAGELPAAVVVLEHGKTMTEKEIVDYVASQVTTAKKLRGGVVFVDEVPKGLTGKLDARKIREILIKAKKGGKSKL

[12] = Luminescence Cell-Based Dose Confirmation HTS to Identify Inhibitors of Platelet Dense Granule Release. [Related pubchem assays: 1663 (Primary HTS), 1678 (Summary of Project)]; type: functional
P388/ADR = assay: cells; type: functional
SN12K1 = assay: cells; type: functional
P388 = assay: cells; type: functional

Compound	IC50 [6]	GI50 (P388/ADR; Mus musculus, P388/ADR)	GI50 (SN12K1; Homo sapiens, SN12K1)	GI50 (P388; Mus musculus, P388)	also measured
O=C1c2ccccc2-c2c1nc1c([n+]2[O-])CCCC1					EC50 [1]: 4.63 µM (active); EC50 (H4): 6.95 µM (active); AC50 [2]: 21 µM (active); EC50 [3]: 0.262 µM (active); EC50 (Protein RecA): 20.1 µM (active)
O=C(Nc1nc2ccccc2s1)C1CCN(S(=O)(=O)c2cc([N+](=O)[O-])ccc2Cl)CC1	3.28 µM (active)				EC50 [4]: 0.713 µM (active); EC50 [5]: > 60 µM (not active); AC50 [7]: 2.18 µM (active); AC50 [8]: 3.07 µM (active); AC50 [9]: 50.7 µM (active); AC50 [10]: 25 µM (active)
COc1cccc2cc(-c3cc(=O)oc4cc(C)c(O)cc34)oc12	9.12 µM (active)				
CCn1cc(C(=O)NCc2ccco2)c(=O)c2cc(F)c(N3CCN(C(=O)c4ccco4)CC3)cc21	17.6 µM (active)				
COc1ccc(C(=O)NCC(=O)Nc2ccc(-c3ccccc3)cc2)cc1	5.62 µM (active)				
Cc1ccc(OCC(=O)NNC(=O)Cn2nnc(-c3ccccc3)n2)cc1	12.7 µM (active)				
COc1ccc(NC(=O)CSc2c3c(nc4cc(Cl)ccc24)CCCC3)cc1OC					EC50 [11]: > 112 µM (not active); EC50 [12]: > 112 µM (not active); AC50 [2]: 8.17 µM (active); EC50 (Protein RecA): 3.1 µM (active)
Nc1ccn(C2CCC(CO)O2)c(=O)n1 (stereo not drawn)		> 80.4 µM (inactive)	> 100 µM (inactive)	> 100 µM (inactive)	
CCOC(=O)NC(=O)c1cn(CCN(CCO)C(=O)NCCCCCCNC(=O)N(CCO)CCn2cc(C(=O)NC(=O)OCC)c(=O)[nH]c2=O)c(=O)[nH]c1=O		> 100 µM (inactive)	> 100 µM (inactive)	> 100 µM (inactive)	
CCCCCCCCCOCC(COP(=O)([O-])OCC[N+](C)(C)C)OC (stereo not drawn)		> 100 µM (inactive)	> 100 µM (inactive)	99.1 µM (inactive)	
CNCCNc1ccc2c3c(nn2CCNCCO)-c2c(O)ccc(O)c2C(=O)c13		0.216 µM (active)	0.0673 µM (active)	0.000867 µM (active)	
CC(C)NC(=O)OCc1c2c(n(C)c1COC(=O)NC(C)C)-c1ccccc1CC2		2 µM (inactive)	12 µM (inactive)	1.79 µM (inactive)	
CC(/C=C/c1ccco1)=N\NC(=O)c1cc(Cl)ccc1O	10.7 µM (active)				
CC[C@]1(O)C[C@H]2CN(CCc3c([nH]c4ccccc34)[C@@](C(=O)OC)(c3cc4c(cc3OC)N(C)[C@H]3[C@@](O)(C(=O)OC)[C@H](OC(C)=O)[C@]5(CC)C=CCN6CC[C@]43[C@@H]65)C2)C1		0.103 µM (active)	0.000348 µM (active)	0.000674 µM (active)	
Cc1c2cc[n+](C)cc2c(C)c2c1[nH]c1ccccc12					GI50 (P388/ADR): 70 µM (inactive); GI50 (SN12K1): 0.385 µM (active); GI50 (P388): 1.12 µM (inactive)
CCCCCCc1ccc(O)cc1O [HEXYLRESORCINOL]		45.2 µM (inactive)	37.5 µM (inactive)	48.4 µM (inactive)	EC50 [4]: 0.781 µM (active); EC50 [5]: > 30 µM (not active)
O=C1CNC(=O)N1 [HYDANTOIN]		706 µM (inactive)	> 1120 µM (inactive)	630 µM (inactive)	
O=C1N[C@@H]2C(=C[C@H](O)[C@@H](O)[C@H]2O)c2cc3c(c(O)c21)OCO3 [NARCICLASINE]		0.045 µM (active)	0.045 µM (active)	0.045 µM (active)	
